# Reference: patent US6737383B1, “Herbicidal oxadiazolidines” (priority 1999, dated 2004)
# Columns and labels:
# cocklebur = experiment: Test B pre/postemergence cocklebur; assay type: in vivo, Xanthium strumarium
# How it was run: (§1)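 Herbicidal effect was estimated by eye on a ten-point control scale after plants spent twelve to sixteen days in a greenhouse following soil or foliar treatment. Foliar sprays targeted plants at one to four leaves; all doses were formulated in a non-phytotoxic solvent with surfactant.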
# wheat = experiment: Test B pre/postemergence wheat; assay type: in vivo, Triticum aestivum
# How it was run: as §1
# surinam grass = experiment: Test B pre/postemergence surinam grass; assay type: in vivo, Brachiaria decumbens
# How it was run: as §1
# rape = experiment: Test B pre/postemergence rape; assay type: in vivo, Brassica napus
# How it was run: as §1
# corn = experiment: Test B pre/postemergence corn; assay type: in vivo, Zea mays
# How it was run: as §1
# crabgrass = experiment: Test B pre/postemergence crabgrass; assay type: in vivo, Digitaria sanguinalis
# How it was run: as §1
# rice = experiment: Test B flood test rice; assay type: in vivo, Oryza sativa
# How it was run: (§2)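 Each value is a visual injury score relative to controls, with 10 meaning complete control and 0 no effect. Evaluation took place twelve to sixteen days after the 2-leaf-stage plants were treated and kept in the greenhouse.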
# velvetleaf = experiment: Test B pre/postemergence velvetleaf; assay type: in vivo, Abutilon theophrasti
# How it was run: as §1
# smallflower flatsedge = experiment: Test B flood test smallflower flatsedge; assay type: in vivo, Cyperus difformis
# How it was run: as §2
# sugar beet = experiment: Test B pre/postemergence sugar beet; assay type: in vivo, Beta vulgaris
# How it was run: as §1
# duck salad = experiment: Test B flood test duck salad; assay type: in vivo, Heteranthera limosa
# How it was run: as §2
# bamyardgrass = experiment: Test B flood test barnyardgrass; assay type: in vivo, Echinochloa crus-galli
# How it was run: as §2
# bedstraw = experiment: Test B pre/postemergence bedstraw; assay type: in vivo, Galium aparine; conditions: Preemergence
# How it was run: as §1
# soybean = experiment: Test B pre/postemergence soybean; assay type: in vivo, Glycine max
# How it was run: as §1
# giant foxtail = experiment: Test B pre/postemergence giant foxtail; assay type: in vivo, Setaria faberii
# How it was run: as §1
# purple nutsedge = experiment: Test B pre/postemergence purple nutsedge; assay type: in vivo, Cyperus rotundus
# How it was run: as §1
# blackgrass = experiment: Test B pre/postemergence blackgrass; assay type: in vivo, Alopecurus myosuroides
# How it was run: as §1
# [1] = Postemergence, Rate 62 g/ha, scale 0 to 10, 0 is no effect, 10 is complete control
# [2] = Postemergence, Rate 125 g/ha, scale of 0 to 10 where 0 is no effect and 10 is complete control
# [3] = Postemergence, Rate 250 g/ha, scale of 0 to 10, 0 is no effect, 10 is complete control
# [4] = Postemergence, Rate 500 g/ha, scale of 0 to 10 where 0 is no effect and 10 is complete control
# [5] = Preemergence, Rate 62 g/ha, scale 0 to 10 (0 no effect, 10 complete control)
# [6] = Preemergence, Rate 125 g/ha, scale of 0 to 10 where 0 is no effect and 10 is complete control
# [7] = Preemergence, Rate 250 g/ha, scale 0 to 10 (0 no effect, 10 complete control)
# [8] = Preemergence, Rate 500 g/ha, scale of 0 to 10 where 0 is no effect and 10 is complete control
# [9] = Rate 62 g/ha, flood test species, Pre-emergence, visual evaluation after twelve to sixteen days
# [10] = Rate 125 g/ha, under heading Pre-emergence, flood test species, visual evaluation after twelve to sixteen days
# [11] = Rate 250 g/ha, Pre-emergence (flood test species), scale 0 to 10, 0 is no effect, 10 is complete control
# [12] = Rate 500 g/ha, Pre-emergence section of Table B, 0 to 10 scale (0 no effect, 10 complete control)
smiles,measurement,setting,value
COCCn1c(=O)on(C(=O)N(c2ccccc2)C(C)C)c1=O [Compound 631],"Plant response rating, Cocklebur",cocklebur; [1],0
same,"Plant response rating, Cocklebur",cocklebur; [2],0
same,Cocklebur plant response rating,cocklebur; [3],0
same,"Plant response rating, Cocklebur",cocklebur; [4],2
same,Cocklebur plant response rating,cocklebur; [5],0
same,Cocklebur plant response rating,cocklebur; [6],0
same,"Plant response rating, Cocklebur",cocklebur; [7],0
same,"Plant response rating, Cocklebur",cocklebur; [8],2
same,"Plant response rating, Wheat",wheat; [1],0
same,"Plant response rating, Wheat",wheat; [2],2
same,Wheat plant response rating,wheat; [3],6
same,Wheat plant response rating,wheat; [5],0
same,Wheat plant response rating,wheat; [6],3
same,"Plant response rating, Wheat",wheat; [7],8
same,"Plant response rating, Wheat",wheat; [8],9
same,"Plant response rating, B. signalgrass",surinam grass; [1],1
same,"Plant response rating, B. signalgrass",surinam grass; [2],3
same,B. signalgrass plant response rating,surinam grass; [3],6
same,"Plant response rating, B. signalgrass",surinam grass; [4],8
same,B. signalgrass plant response rating,surinam grass; [5],6
same,B. signalgrass plant response rating,surinam grass; [6],7
same,"Plant response rating, B. signalgrass",surinam grass; [7],10
same,"Plant response rating, B. signalgrass",surinam grass; [8],10
same,"Plant response rating, Rape",rape; [1],0
same,"Plant response rating, Rape",rape; [2],0
same,Rape plant response rating,rape; [3],2
same,"Plant response rating, Rape",rape; [4],2
same,Rape plant response rating,rape; [5],0
same,Rape plant response rating,rape; [6],0
same,"Plant response rating, Rape",rape; [7],6
same,"Plant response rating, Rape",rape; [8],8
same,"Plant response rating, Corn",corn; [1],5
same,"Plant response rating, Corn",corn; [2],5
same,Corn plant response rating,corn; [3],6
same,"Plant response rating, Corn",corn; [4],8
same,Corn plant response rating,corn; [5],5
same,Corn plant response rating,corn; [6],6
same,"Plant response rating, Corn",corn; [7],8
same,"Plant response rating, Corn",corn; [8],9
same,"Plant response rating, Crabgrass",crabgrass; [1],8
same,"Plant response rating, Crabgrass",crabgrass; [2],9
same,Crabgrass plant response rating,crabgrass; [3],9
same,"Plant response rating, Crabgrass",crabgrass; [4],9
same,Crabgrass plant response rating,crabgrass; [5],7
same,Crabgrass plant response rating,crabgrass; [6],7
same,"Plant response rating, Crabgrass",crabgrass; [7],9
same,"Plant response rating, Crabgrass",crabgrass; [8],9
same,"Plant response rating, Rice (0 to 10 scale, 0 is no effect, 10 is complete control)",rice; [9],0
same,"Rice plant response rating (0 to 10 scale, 0 is no effect, 10 is complete control)",rice; [10],0
same,Rice plant response rating,rice; [11],0
same,Rice plant response rating,rice; [12],0
same,"Plant response rating, Velvetleaf",velvetleaf; [1],4
same,"Plant response rating, Velvetleaf",velvetleaf; [2],4
same,Velvetleaf plant response rating,velvetleaf; [3],7
same,Velvetleaf plant response rating,velvetleaf; [5],6
same,Velvetleaf plant response rating,velvetleaf; [6],7
same,"Plant response rating, Velvetleaf",velvetleaf; [7],7
same,"Plant response rating, Velvetleaf",velvetleaf; [8],9
same,"Plant response rating, S. Flatsedge (0 to 10 scale, 0 is no effect, 10 is complete control)",smallflower flatsedge; [9],0
same,"S. Flatsedge plant response rating (0 to 10 scale, 0 is no effect, 10 is complete control)",smallflower flatsedge; [10],0
same,S. Flatsedge plant response rating,smallflower flatsedge; [11],0
same,S. Flatsedge plant response rating,smallflower flatsedge; [12],0
same,"Plant response rating, Sugarbeets",sugar beet; [1],0
same,"Plant response rating, Sugarbeets",sugar beet; [2],0
same,Sugarbeets plant response rating,sugar beet; [3],0
same,Sugarbeets plant response rating,sugar beet; [5],0
same,Sugarbeets plant response rating,sugar beet; [6],3
same,"Plant response rating, Sugarbeets",sugar beet; [7],4
same,"Plant response rating, Sugarbeets",sugar beet; [8],8
same,"Plant response rating, Ducksalad (0 to 10 scale, 0 is no effect, 10 is complete control)",duck salad; [9],0
same,"Ducksalad plant response rating (0 to 10 scale, 0 is no effect, 10 is complete control)",duck salad; [10],0
same,Ducksalad plant response rating,duck salad; [11],0
same,Ducksalad plant response rating,duck salad; [12],0
same,"Plant response rating, Barnyardgrass (0 to 10 scale, 0 is no effect, 10 is complete control)",bamyardgrass; [9],0
same,"Barnyardgrass plant response rating (0 to 10 scale, 0 is no effect, 10 is complete control)",bamyardgrass; [10],1
same,Barnyardgrass plant response rating,bamyardgrass; [11],4
same,Barnyardgrass plant response rating,bamyardgrass; [12],4
same,Bedstraw plant response rating,"bedstraw; Rate 62 g/ha, scale 0 to 10 (0 no effect, 10 complete control)",0
same,Bedstraw plant response rating,"bedstraw; Rate 125 g/ha, scale of 0 to 10 where 0 is no effect and 10 is complete control",0
same,"Plant response rating, Bedstraw","bedstraw; Rate 250 g/ha, scale 0 to 10 (0 no effect, 10 complete control)",0
same,"Plant response rating, Soybean",soybean; [1],5
same,"Plant response rating, Soybean",soybean; [2],5
same,Soybean plant response rating,soybean; [3],8
same,Soybean plant response rating,soybean; [5],2
same,Soybean plant response rating,soybean; [6],5
same,"Plant response rating, Soybean",soybean; [7],9
same,"Plant response rating, Soybean",soybean; [8],9
same,"Plant response rating, Giant foxtail",giant foxtail; [1],8
same,"Plant response rating, Giant foxtail",giant foxtail; [2],9
same,Giant foxtail plant response rating,giant foxtail; [3],9
same,"Plant response rating, Giant foxtail",giant foxtail; [4],9
same,Giant foxtail plant response rating,giant foxtail; [5],9
same,Giant foxtail plant response rating,giant foxtail; [6],9
same,"Plant response rating, Giant foxtail",giant foxtail; [7],10
same,"Plant response rating, Giant foxtail",giant foxtail; [8],10
same,"Plant response rating, Nutsedge",purple nutsedge; [1],0
same,"Plant response rating, Nutsedge",purple nutsedge; [2],0
same,Nutsedge plant response rating,purple nutsedge; [3],0
same,Nutsedge plant response rating,purple nutsedge; [5],0
same,Nutsedge plant response rating,purple nutsedge; [6],4
same,"Plant response rating, Nutsedge",purple nutsedge; [7],4
same,"Plant response rating, Nutsedge",purple nutsedge; [8],8
same,"Plant response rating, Blackgrass",blackgrass; [1],1
same,"Plant response rating, Blackgrass",blackgrass; [2],8
same,Blackgrass plant response rating,blackgrass; [3],6
same,"Plant response rating, Blackgrass",blackgrass; [4],9
same,Blackgrass plant response rating,blackgrass; [5],6
same,Blackgrass plant response rating,blackgrass; [6],7
same,"Plant response rating, Blackgrass",blackgrass; [7],9
same,"Plant response rating, Blackgrass",blackgrass; [8],10
